In the Bradley open melting point set (2014) one finds melting point data, which are given here for 92 compounds.

Values joined by “and” are separate entries in the source; they are usually repeats but may differ in a detail not shown here. Identical values can stand only once. Counter-ions that a name gives are not always drawn.

For `O=[N+]([O-])/C=C/c1ccc(Cl)c(Cl)c1` [3,4-dichloro-beta-nitrostyrene], the melting point – broadly, the temperature, or range, at which the solid turns liquid – is 93 °C.
Under `N[C@@H](CCC(=O)N[C@@H](CS)C(=O)NCC(=O)O)C(=O)O` [Glutathione] stands 194 °C; under `CCCC=NO` [butyraldoxime], -29 °C.
Under `NC(=O)c1ccc([N+](=O)[O-])cc1` [p-nitrobenzamide] stands 201 °C; under `O=C(O)c1ccc(Cl)c(Cl)c1` [3,4-Dichlorobenzoic acid], 208 °C; under `CCC(C)(C)C` [2,2-dimethylbutane], -100 °C.
As for `COc1ccc(C(=O)c2ccc(-c3ccccc3)cc2)cc1OC` [biphenyl-4-yl(3,4-dimethoxyphenyl)methanone], the figure is 108 °C.
Take `NS(=O)(=O)c1cc(C(=O)O)c(NCc2ccco2)cc1Cl` [furosemide]: the melting point is 206 °C (2×) and 208 °C and 204 °C (2×).
As for `N#CCC(=O)O` [cyanoacetic acid], the figure is 67 °C.
Under `Clc1cccc(Cl)c1Cl` [1,2,3-Trichlorobenzene] stands 53 °C; under `[O-][n+]1onc2ccccc21` [benzofuroxan], 69 °C; under `CC1CNCC(C)O1` (configuration not stated) [2,6-Dimethylmorpholine], -85 °C.
As for `Cc1cccc(-c2ccccc2)c1` [1-methyl-3-phenylbenzene], the figure is 5 °C; as for `COc1ccc(C(=O)Nc2ccc(-c3ccc4nn(-c5ccccc5)nc4c3)cc2)cc1`, 106 °C; as for `CCOC(=O)C(=O)OCC` [diethyl oxalate], -40 °C.
`O=S(=O)(Cl)c1ccc(Br)cc1C(F)(F)F` [4-bromo-2-(trifluoromethyl)benzenesulfonyl chloride]: the melting point was 56 °C.
As for `OC(c1ccccc1)c1ccccc1` [Diphenylmethanol], the figure is 66 °C; as for `COc1cc(N=C=S)cc(OC)c1` [3,5-dimethoxyphenyl isothiocyanate], 51 °C.
Under `NC(=O)c1ccccc1O` [o-hydroxybenzamide] stands 142 °C.
Under `C[C@]12CC[C@@H]3c4ccc(O)cc4CC[C@H]3[C@@H]1CCC2=O` [estrone] stands 255 °C; under `O=C(Cl)c1ccc(Cl)cc1Cl` [2,4-dichlorobenzoyl chloride], 18 °C; under `Clc1ccc(Br)cc1` [p-bromochlorobenzene], 67 °C.
`Cc1ccc(C#N)cc1` [4-Methylbenzonitrile] returned a melting point of 29 °C.
Compound `C[Si](Cl)(Cl)Cl` [methyltrichlorosilane] showed a melting point of -78 °C.
As for `CCC1(CC)C(=O)NC(=O)N(C)C1=O` [Metharbital], the figure is 150 °C; as for `Clc1cccc(Cl)c1NC1=NCCN1` [Clonidine], 130 °C.
Under `CC(=O)Oc1ccccc1C(=O)O` [acetylsalicylicacid] stands 142 °C; under `O=c1c2ccccc2sc2ccccc12` [Thiaxanthone], 210 °C.
As for `O=[N+]([O-])c1ccc(Cl)c(Cl)c1Cl` [2,3,4-trichloronitrobenzene], the melting point was 56 °C and 55.5 °C.
Under `NC(=O)c1ccc([N+](=O)[O-])cc1` [4-Nitrobenzamide] stands 202 °C; under `CCOc1ccc(N=C=S)cc1` [4-ethoxyphenyl isothiocyanate], 59 °C.
Under `O=C1c2c(O)cccc2Cc2cccc(O)c21` [1,8-Dihydroxyanthracen-9(10H)-one] stands 181 °C; under `Cc1cc(/C=C2\SC(=Nc3ccccc3)N=C2O)c(C)n1-c1ccccn1` [OSM-S-51], 277 °C; under `Oc1ncc(F)c(O)n1` [5-Fluorouracil], 283 °C.
Consider `COC(=O)c1[nH]c(C(=O)OC)c(O)c1O` [dimethyl 3,4-dihydroxypyrrole-2,5-dicarboxylate], for which the melting point amounted to 211 °C.
As for `CCCC(C)(COC(N)=O)COC(=O)NC(C)C` (configuration not stated) [carisoprodol], the figure is 92 °C; as for `CCCc1ccc(C(=O)Oc2ccc(C#N)cc2)cc1` [4-cyanophenyl 4-n-propylbenzoate], 102 °C; as for `CCOC(=O)c1ccc(B(O)O)cc1` [4-(ethoxycarbonyl)benzeneboronic acid], 139 °C.
The compound `CSCC[C@H](N)CO` [L-methioninol] gave a melting point of 32 °C.
Under `NNc1c(F)c(F)c(F)c(F)c1F` [pentafluorophenylhydrazine] stands 76 °C.
Under `c1ccc2c(c1)Sc1ccccc1S2` [Thianthrene] stands 159 °C; under `OCc1ccc(O)cc1` [4-hydroxybenzyl alcohol], 118 °C.
Under `COC(=O)c1ccc([N+](=O)[O-])cc1Cl` [methyl 2-chloro-4-nitrobenzoate] stands 76 °C; under `Cc1cn([C@H]2C[C@H](O)[C@@H](CO)O2)c(=O)[nH]c1=O` [thymidine], 188 °C.
Consider `CCCCCCCCCCCCCCCCS` [1-hexadecanethiol], for which the melting point turned out to be 21 °C.
In the case of `CCC#CCCCC` [3-octyne], the melting point was -104 °C.
Under `Cc1ccc([N+](=O)[O-])cc1` [p-nitrotoluene] stands 54 °C; under `CCCCCCCCCCCCSCCCCCCCCCCCC` [di-n-dodecyl sulfide], 40 °C; under `OCc1cccc(CO)c1` [1,3-benzenedimethanol], 58 °C.
Under `O=C(O)c1ccccc1Cl` [2-Chlorobenzoic acid] stands 142 °C; under `CCOC(=O)/C=C(/C)N` [ethyl 3-aminocrotonate], 32 °C; under `CCc1ccc(CC)cc1` [1,4-diethylbenzene], -43 °C.
As for `Cc1cc(=O)n(-c2ccccc2)n1C` [antipyrine], the figure is 112 °C; as for `O=C(O)c1ccccc1` [benzoic acid], 122 °C (5×) and 123 °C (2×).
The compound `O=C(O)/C(=C/c1cccc([N+](=O)[O-])c1)c1ccccc1` [(E)-2-phenyl-3-(3-nitrophenyl)propenoic acid] came in with a melting point of 185 °C.
As for `CCCC=CB(O)O` [1-pentenylboronic acid], the figure is 80 °C.
As for `CO` [Methanol], the figure is -98 °C; as for `OCc1ccc(B(O)O)cc1` [4-(hydroxymethyl)benzeneboronic acid], 280 °C; as for `O=CNC(c1ccccc1)c1ccccc1` [N-(Diphenylmethyl)formamide], 136 °C.
Under `Oc1ccc(Cl)c(Cl)c1` [3,4-dichlorophenol] stands 67 °C; under `CCCCCCCCCCCC(=O)O` [Lauric acid], 45 °C.
In turn, `O[C@H]1[C@H](O)[C@@H](O)[C@H](O)[C@@H](O)[C@H]1O` [myo-inositol] registered a melting point of 226 °C.
As for `NC(=O)c1ccc(F)c(F)c1` [3,4-difluorobenzamide], the figure is 133 °C; as for `O=C(O)c1cc(F)c(F)c(F)c1F` [2,3,4,5-tetrafluorobenzoic acid], 86 °C; as for `COc1cc(Br)c(/C=C/C(=O)O)cc1OC` [2-bromo-4,5-dimethoxycinnamic acid], 255 °C.
Under `CC(=O)Nc1ccc(O)cc1` [acetaminophen] stands 170 °C.
Compound `C(O)[C@H](O)[C@@H](O)[C@@H](O)CO` [L-arabitol] gave a melting point of 101 °C.
Under `S=P(N1CC1)(N1CC1)N1CC1` [1,1',1''-Phosphorothioyltriaziridine] stands 51.5 °C; under `Fc1ccc2cc[nH]c2c1` [6-fluoroindole], 76 °C; under `NCCCCCC(=O)O` [6-aminocaproic acid], 205 °C.
Under `N#CCc1ccccc1Cl` [2-chlorobenzyl_cyanide] stands 24 °C; under `OB(O)c1cccc2c1oc1ccccc12` [dibenzofuran-4-boronic acid], 289 °C; under `C[Si]1(C)O[Si](C)(C)O[Si](C)(C)O1` [hexamethylcyclotrisiloxane], 65 °C.
Under `CC=C(/C)C` [2-Methylbut-2-ene] stands -134 °C.
In turn, `CCCCOC(=O)c1ccc(O)cc1` [N-butyl 4-hydroxybenzoate] came in with a melting point of 69 °C.
Under `FC(F)(F)c1ccccc1CBr` [2-(trifluoromethyl)benzyl bromide] stands 29 °C; under `CC1=CCC(C(C)(C)O)CC1` (stereo not drawn) [alpha-terpineol], 32 °C.
Under `ClCc1ccccc1` [benzyl chloride] stands -43 °C.
As to `CC(C)(C)Cl` [2-chloro-2-methylpropane], the melting point was -25 °C.
Under `Cc1ccc([N+](=O)[O-])cc1Cl` [2-chloro-4-nitrotoluene] stands 64 °C.
As for `O=C1C(CCS(=O)c2ccccc2)C(=O)N(c2ccccc2)N1c1ccccc1` (configuration not stated) [Sulfinpyrazone], the figure is 136 °C.
Under `CC(C)[C@@H](NC(=O)OC(C)(C)C)C(=O)O` [N-boc-D-valine] stands 78 °C.
For `c1ccc2c(c1)ccc1ccccc12` [Phenanthrene], the melting point is 101 °C.
In turn, `c1ccc2cc3cc4ccccc4cc3cc2c1` [Tetracene] had a melting point of 350 °C.
Under `N#CC(=Cc1cccc(O)c1)C1N=c2ccccc2=N1` stands 300 °C; under `OB(O)c1ccc(Cl)nc1` [6-chloropyridine-3-boronic acid], 156 °C.
Under `N#Cc1cc(Br)ccc1I` [5-bromo-2-iodobenzonitrile] stands 121 °C; under `CC1=C(CC(=O)O)c2cc(F)ccc2/C1=C\c1ccc([S+](C)[O-])cc1` (configuration not stated) [Sulindac], 184 °C.
In the case of `C[SiH](C)c1ccccc1` [dimethylphenylsilane], the melting point was -124 °C.
Compound `ClC(Cl)(Cl)Cl` [tetrachloromethane] gave a melting point of -23 °C.
As for `CCCI` [1-Iodopropane], the figure is -101 °C; as for `CCC(C)(C)C` [2,2-Dimethylbutane], -100 °C.
